Tests used:
[1] = Storage stability of Formula (I) L-tartaric acid Form 2 co-crystal (long-term and accelerated); type: physicochemical; conditions: 25° C./60% RH, 0 months; to Form 2
[2] = as above; type: physicochemical; conditions: for Chemical Purity Assay: ASFB; for Crystallinity: to Form 2
Description: Formula (I) L-tartaric acid Form 2 co-crystal was evaluated for stability (Table 18 and Table 19). The co-crystal was stored in polyethylene double bags sealed with Nylon lock ties with two (2) 0.5 g silica gel desiccant packets in between, and inside a capped polyethylene container containing four (4) 33 g Silica Gel desiccant packs. The storage conditions were long-term condition 25° C./60% RH or accelerated condition 40° C./75% RH. The samples were analyzed for appearance, assay, related substances, chiral purity, water content and crystallinity.

COc1ccnc(-c2cnc3ccc(-c4ccc(F)c(O[C@@H](C)Cn5cnnn5)c4)nn23)c1C#N.COc1ccnc(-c2cnc3ccc(-c4ccc(F)c(O[C@@H](C)Cn5cnnn5)c4)nn23)c1C#N.O.O=C(O)C(O)C(O)C(=O)O.O=C(O)C(O)C(O)C(=O)O [Formula (I) L-Tartaric Acid Form 2]
Crystallinity [1]: Conforms | Chiral Purity ([2]; 25° C./60% RH, 0 months): >99.9 area % | Description ([2]; 25° C./60% RH, 0 months): Off-white | Related Substances: Impurity #1 ([2]; 25° C./60% RH, 0 months): 0.25% | Total Impurities ([2]; 25° C./60% RH, 0 months): 0.25% | Water ([2]; 25° C./60% RH, 0 months): 1.59% | Chemical Purity Assay ([2]; 25° C./60% RH, 0 months): 99.3 wt % | Description ([2]; 25° C./60% RH, 3 months): Off-white | Related Substances: Impurity #1 ([2]; 25° C./60% RH, 3 months): 0.25% | Total Impurities ([2]; 25° C./60% RH, 3 months): 0.25% | Water ([2]; 25° C./60% RH, 3 months): 1.58% | Chemical Purity Assay ([2]; 25° C./60% RH, 3 months): 99.6 wt % | Crystallinity ([2]; 25° C./60% RH, 3 months): Conforms | Chiral Purity ([2]; 25° C./60% RH, 6 months): >99.9 area % | Description ([2]; 25° C./60% RH, 6 months): Off-white | Related Substances: Impurity #1 ([2]; 25° C./60% RH, 6 months): 0.26% | Total Impurities ([2]; 25° C./60% RH, 6 months): 0.26% | Water ([2]; 25° C./60% RH, 6 months): 1.55% | Chemical Purity Assay ([2]; 25° C./60% RH, 6 months): 99.3 wt % | Crystallinity ([2]; 25° C./60% RH, 6 months): Conforms | Chiral Purity ([2]; 40° C./75% RH, 0 months): >99.9 area % | Description ([2]; 40° C./75% RH, 0 months): Off-white | Related Substances: Impurity #1 ([2]; 40° C./75% RH, 0 months): 0.25% | Total Impurities ([2]; 40° C./75% RH, 0 months): 0.25% | Water ([2]; 40° C./75% RH, 0 months): 1.59% | Chemical Purity Assay ([2]; 40° C./75% RH, 0 months): 99.3 wt % | Crystallinity ([2]; 40° C./75% RH, 0 months): Conforms | Description ([2]; 40° C./75% RH, 3 months): Off-white | Related Substances: Impurity #1 ([2]; 40° C./75% RH, 3 months): 0.25% | Total Impurities ([2]; 40° C./75% RH, 3 months): 0.25% | Water ([2]; 40° C./75% RH, 3 months): 1.56% | Chemical Purity Assay ([2]; 40° C./75% RH, 3 months): 99.3 wt % | Crystallinity ([2]; 40° C./75% RH, 3 months): Conforms | Chiral Purity ([2]; 40° C./75% RH, 6 months): >99.9 area % | Description ([2]; 40° C./75% RH, 6 months): Off-white | Related Substances: Impurity #1 ([2]; 40° C./75% RH, 6 months): 0.25% | Total Impurities ([2]; 40° C./75% RH, 6 months): 0.25% | Water ([2]; 40° C./75% RH, 6 months): 1.60% | Chemical Purity Assay ([2]; 40° C./75% RH, 6 months): 100.0 wt % | Crystallinity ([2]; 40° C./75% RH, 6 months): Conforms

Reference: patent publication US20250145630A1, “POLYMORPHS OF A PYRIDINYLIMIDAZO[1,2-B]PYRIDAZINE” (Cardurion Pharmaceuticals, Inc., priority 2023, published 2025)
